# Reference: PubChem BioAssay (NCI)
#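 Five compound concentrations were applied to cells in 96-well plates for 48 hours; endpoints were derived by simple linear interpolation of the resulting dose-response curve. TGI is the concentration that stops growth completely.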
# How the values were obtained:
# Assay in all cases: DTP human tumour cell line panel, 48 h
# A549 NSCLC = test system: A549 NSCLC
# DLD-1 colon = test system: DLD-1 colon
# DMS 114 small cell lung = test system: DMS 114 small cell lung
# DMS 273 small cell lung = test system: DMS 273 small cell lung
# HCC-2998 colon = test system: HCC-2998 colon
# HCT-116 colon = test system: HCT-116 colon
# HCT-15 colon = test system: HCT-15 colon
# HL-60(TB) leukemia = test system: HL-60(TB) leukemia
# HOP-62 NSCLC = test system: HOP-62 NSCLC
# OVCAR-5 ovarian = test system: OVCAR-5 ovarian
# SK-MEL-2 melanoma = test system: SK-MEL-2 melanoma
# SK-MEL-5 melanoma = test system: SK-MEL-5 melanoma
# SK-OV-3 ovarian = test system: SK-OV-3 ovarian
# SN12C renal = test system: SN12C renal
# SNB-75 CNS = test system: SNB-75 CNS
# SW-620 colon = test system: SW-620 colon
# U251 CNS = test system: U251 CNS
# UACC-62 melanoma = test system: UACC-62 melanoma
# UO-31 renal = test system: UO-31 renal
# MALME-3M melanoma = test system: MALME-3M melanoma
SMILES,TGI (A549 NSCLC) [µM],TGI (DLD-1 colon) [µM],TGI (DMS 114 small cell lung) [µM],TGI (DMS 273 small cell lung) [µM],TGI (HCC-2998 colon) [µM],TGI (HCT-116 colon) [µM],TGI (HCT-15 colon) [µM],TGI (HL-60(TB) leukemia) [µM],TGI (HOP-62 NSCLC) [µM],TGI (OVCAR-5 ovarian) [µM],TGI (SK-MEL-2 melanoma) [µM],TGI (SK-MEL-5 melanoma) [µM],TGI (SK-OV-3 ovarian) [µM],TGI (SN12C renal) [µM],TGI (SNB-75 CNS) [µM],TGI (SW-620 colon) [µM],TGI (U251 CNS) [µM],TGI (UACC-62 melanoma) [µM],TGI (UO-31 renal) [µM],TGI (MALME-3M melanoma) [µM]
CC(=O)NNc1nc(C)c(C(=O)NNC(=O)C(=O)Nc2cccc(C(C)=O)c2)s1,> 100,98.9,34.2,> 100,32.5,> 100,52.5,57.9,68.2,> 100,> 100,> 100,32.5,35.1,38.9,> 100,90.4,31.4,30.9,
C[S+](C)CC1OC(n2cnc3c(N)ncnc32)C(O)C1O (stereo not drawn),> 225,> 225,> 225,> 225,> 225,> 225,> 225,> 225,> 225,> 225,> 225,> 225,> 225,> 225,> 225,> 225,> 225,> 200,> 225,> 225
CN(C)CCNC(=O)c1cccc2cc3cc(O)ccc3nc12,3.47,4.88,3.13,2.52,8.3,5.73,6.53,2.37,2.94,4.32,3.81,2.48,4.27,4.65,6.31,3.46,4.46,2.74,,2.54
COC(=O)C1=C(O)C(C(=O)OC)[C@]2(O)[C@@H](C(=O)OC)[C@H]1C[C@@H](c1ccccc1)[C@@H]2C(=O)OC (stereo partly drawn),,,,,27.3,21.8,26.9,> 100,41.7,30.9,28.2,,47.3,32.1,> 100,,30.7,25.1,26.6,45.1
CC(C)(C)C(=O)OCC1OC(N=[N+]=[N-])C(OC(=O)C(C)(C)C)C(OC(=O)C(C)(C)C)C1OC(=O)C(C)(C)C (stereo not drawn),> 100,> 100,> 100,> 100,> 100,> 100,> 100,> 100,> 100,> 100,> 100,> 100,> 100,> 100,> 100,> 100,> 100,> 100,> 100,> 100
Cc1ccc(N(O)C(C)(C)C)cc1,> 100,> 100,> 100,> 100,> 100,> 100,> 100,> 100,> 100,> 100,> 100,> 100,> 100,> 100,> 100,> 100,> 100,> 100,> 100,> 100
O=Nn1c2ccccc2c2cc([N+](=O)[O-])ccc21,73.2,,,,> 100,32.5,> 100,> 100,25.7,47.7,96.8,> 100,30.1,37,19.5,59.7,33.1,32.9,49.2,38.5
CC(C)OP(=O)(OC(C)C)C1=NN(c2ccc([N+](=O)[O-])cc2)C(P(=O)(OC(C)C)OC(C)C)=NN1c1ccc([N+](=O)[O-])cc1,> 100,> 100,> 100,> 100,> 100,> 100,> 100,16.4,> 100,> 100,> 100,> 100,> 100,> 100,,> 100,> 100,> 100,> 100,> 100
